Measured values: patent US20020055458A1, “Method for the prevention and treatment of retinopathy” (priority 2000, published 2002)

What was measured:
[1] = system: optic nerve oxygen tension (ONPo2); details: pig; Stefánsson et al., IOVS 1999; cited from earlier work
[2] = system: diabetic retinopathy in patients with diabetes mellitus; experiment: Retrospective clinical study of progression of diabetic retinopathy in diabetics on glaucoma eye drops; assay type: in vivo, human; details: for two year event rate (progression of retinopathy): diabetic patients on eye drops for glaucoma or ocular hypertension, 2 years from onset of medication, CAI group n=19, non-CAI group n=12
Protocol: In a retrospective clinical study, the hypothesis that dorzolamide eye drops (Trusopt®) used bid or tid for glaucoma or ocular hypertension would slow the progression of diabetic retinopathy in patients with diabetes mellitus was tested. Since 1980, a screening program has been in place for diabetic eye disease at the Department of Ophthalmology, University of Iceland, Reykjavik, Iceland. Eye examinations of diabetic patients have been performed annually and examination results have been documented. A retrospective study was undertaken to find those diabetics who were using CAIs or beta-blockers (such as timolol) for either glaucoma or ocular hypertension. These candidates were selected from the general population of the screening program. In total, 31 patients were found. Of these 31, 19 were prescribed CAIs or a combination of CAIs and beta-blockers. The remaining 12 patients were taking a non-CAI medication and served as a control group in the study. The examination findings were reviewed to determine if the changes in retinopathy rating could be associated with CAI use. Also noted was historical information such as length of time since diabetes had been diagnosed, type of medication and time span of usage, visual acuity and other relevant comments. Of those using a CAI, 12 were men and seven were women. The mean age was 67 (range 28-80) for men and 73 (range 62-81) for women. The average time since diagnosis of diabetes mellitus was 14.1 years (SD=9.7 years). The average frequency of check-ups was every 9.1 months (SD=10.7 months). There was an average of 7.4 years of eye examinations and fundus photographs on record (SD=6 years) and the patients were on a CAI for an average of 18.2 months (SD=14.4 months). Of those in the non-CAI (control) group, seven were men and five were women. The mean age was 73 (range 54-82) for men and 75 (range 67-86) for women. The average time since diabetic diagnosis was 15.3 years (SD=7.8 years). The average frequency of check-ups was every 10.9 months (SD=7.9 months). There was an average of 6.2 years of eye examinations and fundus photographs on record (SD=4 years) and the patients were on medication for an average of 58.8 months (SD=52.4 months).

Row | Structure (SMILES) | effect on optic nerve oxygen tension (ONPo2) [1] | two year event rate (progression of retinopathy) [2] | development of sight-threatening retinopathy during the treatment period ([2]; diabetics in the treated group) | rate of progression of diabetic retinopathy compared with diabetics receiving timolol eye drops and with the total population of diabetics in Iceland ([2]; diabetics using eye drops on a regular basis) | overall event rate (retinopathy change) for the entire observation period ([2]; non-CAI (control) group, 12 diabetic patients, entire observation period)
1 | CC(=O)Nc1nnc(S(N)(=O)=O)s1 [Acetazolamide, N-[5-(aminosulfonyl)-1,3,4-thiadiazol-2-yl]acetamide] | increased ONPo2 |  |  |  | 
2 | CCN[C@H]1C[C@H](C)S(=O)(=O)c2sc(S(N)(=O)=O)cc21 [dorzolamide] | increased ONPo2 | 0% | none | lower rate of progression of diabetic retinopathy | 
3 | CC(C)(C)NC[C@H](O)COc1nsnc1N1CCOCC1 [timolol] |  | 8.3% |  |  | 25%
